This is an account of results in article PMC4491109, “Synthesis and anticonvulsant activity of new N-phenyl-2-(4-phenylpiperazin-1-yl)acetamide derivatives” (Medicinal Chemistry Research, 2015).

Holding throughout (type): in vivo
The test system of data set [1] is pentylenetetrazole-induced seizures. Briefly: Subcutaneous pentylenetetrazole (scPTZ) test, i.p. administration in mice. The conditions noted are these: Mus musculus, ip, doses of 30, 100 or 300 mg/kg. As to the method:
(§1) Considering the aforementioned facts, the profile of anticonvulsant activity of final compounds 3–24 was established in the MES and scPTZ tests, after intraperitoneal (i.p.) injection in mice at doses of 30, 100 and 300 mg/kg. An observation was carried out at two different time intervals—0.5 and 4 h. Furthermore, in addition to the primary anticonvulsant screening, the acute neurological toxicity (NT) was determined in mice by the rotarod test.
(§2) Compounds 3–24 were pharmacologically preevaluated within the Antiepileptic Drug Development (ADD) Program in Epilepsy Branch, Neurological Disorders Program, National Institute of the Neurological and Communicative Disorders and Stroke (NIH/NINDS), Rockville, MD, USA, by using procedures described elsewhere (Krall et al., [1978]; Kupferberg, [1989]).
(§3) Phase I of the in vivo studies involved three tests: MES, scPTZ and rotarod test for NT. Male albino mice (CF#1 strain, weighing 18–25 g) and male albino rats (Sprague–Dawley) were used as experimental animals. The animals were housed in metabolic cages and allowed free access to food and water. The compounds were injected intraperitoneally to mice as a suspension in 0.5 % methylcellulose/water mixture at a dose level 30, 100 or 300 mg/kg with anticonvulsant activity and neurotoxicity assessment at 0.5 and 4 h after administration. Promising derivatives from phase I underwent phase VIa in which they were administrated orally into rats at a fixed dose of 30 mg/kg for both MES and the rotarod toxicity determination at five pretreatment times: 0.25, 0.5, 1, 2, 4 h. Groups of eight mice or four rats are employed.
The scPTZ test utilizes a dose of pentylenetetrazole (85 mg/kg in mice) that produces clonic seizures lasting for a period of at least 5 s in 97 % (CD97) of animals tested. PTZ is administered 0.5 and 4 h after injections of tested compounds, and observation is carried out for 30 min. In the control groups, the first episode of clonic convulsions is observed between 6 and 15 min of observation. The absence of clonic convulsions in the observed time period of […] is interpreted as the compound’s ability to protect against PTZ-induced seizures.

Data set [2] relates to maximal electroshock (MES) seizures. In words: Maximal electroshock (MES) test, i.p. administration in mice. The conditions noted are these: Mus musculus, ip, doses of 30, 100 or 300 mg/kg. As to the method:
as §1, §2, §3
In the MES screen, an electrical stimulus of 0.2 s in duration (50 mA in mice and 150 mA in rats) is delivered via corneal electrodes primed with an electrolyte solution containing an anesthetic agent. The endpoint is the tonic extension of the hind limbs. In the control groups, the procedures cause immediate hind limb tonic extension. Mice not displaying hind limb tonic extension are considered to be protected from seizures.
(In the maximal electroshock model the usual endpoint is tonic extension of the hind limbs.)

In the next data set the test system is mice (rotarod test). Briefly: Neurotoxicity screening (NT), rotarod test, i.p. administration in mice. As to the method:
as §1, §3
The neurological toxicity test (NT) induced by a compound was detected in mice or rats using standardized rotarod test (Dunham and Miya, [1957]). Untreated control mice or rats, when placed on the rod, can maintained their equilibrium for a prolonged time period.
(In general: The rotarod test checks motor coordination on a turning rod.)

Data set [3] has as its system 6-Hz psychomotor seizures. Briefly: Psychomotor seizure test (6-Hz), i.p. in mice. The note with it: 100 mg/kg. An excerpt:
In the next step of pharmacological investigations, four compounds 12, 19, 20 and 24 were chosen for the evaluation of anticonvulsant activity in the psychomotor 6-Hz test (Table 4). The selection was made randomly as a part of the search of molecules providing anti-6-Hz protection among chemically diversified compounds pursued in the NIH/NINDS. It should be noticed that 6-Hz screen has been validated as a model of therapy-resistant epilepsy (Barton et al., [2001]).
The 6-Hz model is an alternative electroshock paradigm that uses low-frequency (6 Hz), long-duration (3 s) electrical stimulation. Corneal stimulation (0.2 ms duration monopolar rectangular pulses at 6-Hz for 3 s) was delivered by a constant-current device. During the stimulation, mice were manually restrained and released into the observation cage immediately after the current application. The seizures manifest in “stunned” posture associated with rearing, forelimb, automatic movements and clonus, twitching the vibrissae and Straub–tail. The duration of the seizure activity ranges from 60 to 120 s in untreated animals. At the end of the seizure, animals resume their normal exploratory behavior. The experimental end point is protection against the seizure. The animal is considered to be protected if it resumes its normal exploratory behavior within 10 s from the stimulation (Brown et al., [1953]).

Setting [4] is: 0.5 h, read-out: scPTZ, minimum dose effective in half or more animals tested, 0.5 h.
Where [5] appears, read: 4 h, read-out: scPTZ, minimum dose effective in half or more animals tested, 4 h.
Where [6] appears, read: 0.5 h, read-out: MES, minimum dose effective in half or more animals tested, 0.5 h.
The mark [7] stands for this setting: 4 h, read-out: MES, minimum dose effective in half or more animals tested, 4 h.

SMILES strings stand for the structures. Read-outs that look alike come from different tables or passages of the source.

Take `Cl.O=C(CN1CCN(c2cccc(Cl)c2Cl)CC1)Nc1cccc(Cl)c1` [Compound 6, N-(3-chlorophenyl)-2-[4-(2,3-dichlorophenyl)piperazin-1-yl]acetamide monohydrochloride]: the minimal effective dose in data set [1] (setting [4]), in data set [1] (setting [5]), in data set [2] (setting [6]) and in data set [2] (setting [7]) was above 300 mg/kg throughout.

On to `Cl.O=C(CN1CCN(c2ccccc2F)CC1)Nc1cccc(Cl)c1` [Compound 7, N-(3-chlorophenyl)-2-[4-(2-fluorophenyl)piperazin-1-yl]acetamide monohydrochloride], for which the minimal effective dose in data set [1] (setting [4]), in data set [1] (setting [5]), in data set [2] (setting [6]) and in data set [2] (setting [7]) was above 300 mg/kg each time.

Consider `Cl.O=C(CN1CCN(c2ccccc2F)CC1)Nc1cccc(C(F)(F)F)c1` [Compound 18, 2-[4-(2-Fluorophenyl)piperazin-1-yl]-N-[3-(trifluoromethyl)phenyl]acetamide monohydrochloride], for which the minimal effective dose is above 300 mg/kg in data set [1] (setting [4]), above 300 mg/kg in data set [1] (setting [5]), above 300 mg/kg in data set [2] (setting [6]) and 100 mg/kg in data set [2] (setting [7]).

For `Cl.O=C(CN1CCN(c2ncccn2)CC1)Nc1cccc(Cl)c1` [Compound 10, N-(3-chlorophenyl)-2-(4-pyrimidin-2-ylpiperazin-1-yl)acetamide monohydrochloride], the minimal effective dose in data set [1] (setting [4]), in data set [1] (setting [5]), in data set [2] (setting [6]) and in data set [2] (setting [7]) was above 300 mg/kg each time.

As for `Cl.O=C(CN1CCN(c2ccc(Cl)cc2)CC1)Nc1cccc(Cl)c1` [Compound 5, N-(3-chlorophenyl)-2-[4-(4-chlorophenyl)piperazin-1-yl]acetamide monohydrochloride], the minimal effective dose in data set [1] (setting [4]), in data set [1] (setting [5]), in data set [2] (setting [6]) and in data set [2] (setting [7]) was above 300 mg/kg throughout.

As for `Cl.Cl.O=C(CN1CCN(CCO)CC1)Nc1cccc(C(F)(F)F)c1` [Compound 23, 2-[4-(2-Hydroxyethyl)piperazin-1-yl]-N-[3-(trifluoromethyl)phenyl]acetamide dihydrochloride], the minimal effective dose in data set [1] (setting [4]) is above 300 mg/kg; in data set [1] (setting [5]) it was above 300 mg/kg; in data set [2] (setting [6]), 300 mg/kg; in data set [2] (setting [7]) it was 300 mg/kg. The “NT (rotarod), minimum dose neurotoxic in half or more animals tested, 0.5 h” value in the data set on mice (rotarod test) (male, CF#1, mouse, in vivo) was determined as 300 mg/kg.

With `Cl.O=C(CN1CCN(c2ccccc2Cl)CC1)Nc1cccc(Cl)c1` [Compound 4, N-(3-chlorophenyl)-2-[4-(2-chlorophenyl)piperazin-1-yl]acetamide monohydrochloride], the minimal effective dose in data set [1] (setting [4]), in data set [1] (setting [5]), in data set [2] (setting [6]) and in data set [2] (setting [7]) was above 300 mg/kg throughout.

`O=C(CN1CCN(c2ccccc2)CC1)Nc1cccc(C(F)(F)F)c1` [Compound 14, 2-(4-Phenylpiperazin-1-yl)-N-[3-(trifluoromethyl)phenyl]acetamide]: the minimal effective dose in data set [1] (setting [4]) was above 300 mg/kg; in data set [1] (setting [5]) it was above 300 mg/kg; in data set [2] (setting [6]), above 300 mg/kg; in data set [2] (setting [7]), 100 mg/kg. Further, in the data set on mice (rotarod test) (male, CF#1, mouse, in vivo), the “NT (rotarod), minimum dose neurotoxic in half or more animals tested, 0.5 h” value is 300^Z mg/kg. In the data set with mice (rotarod test) (male, CF#1, mouse, in vivo, 4 h), the “NT (rotarod), minimum dose neurotoxic in half or more animals tested, 4 h” value is on record as 300 mg/kg. Besides, in the data set on mice (rotarod test) (male, CF#1, mouse, in vivo, ip), the “dose showing neurotoxicity in the rotarod test (NT)” value is 300 mg/kg. Also, the “response comment (adverse sign observed)” value with mice (rotarod test) (mice, i.p., 300 mg/kg) is reported as “respiratory depression”.

In the case of `O=C(CN1CCN(c2cccc(Cl)c2Cl)CC1)Nc1cccc(C(F)(F)F)c1` [Compound 17, 2-[4-(2,3-Dichlorophenyl)piperazin-1-yl]-N-[3-(trifluoromethyl)phenyl]acetamide], the minimal effective dose in data set [1] (setting [4]), in data set [1] (setting [5]), in data set [2] (setting [6]) and in data set [2] (setting [7]) was above 300 mg/kg throughout.

As to `Cl.O=C(CN1CCN(c2ccccc2)CC1)Nc1cccc(Cl)c1` [Compound 3, N-(3-chlorophenyl)-2-(4-phenylpiperazin-1-yl)acetamide monohydrochloride], the minimal effective dose in data set [1] (setting [4]), in data set [1] (setting [5]), in data set [2] (setting [6]) and in data set [2] (setting [7]) was above 300 mg/kg in each case.

For the molecule `Cl.O=C(CN1CCN(c2cccc(C(F)(F)F)c2)CC1)Nc1cccc(Cl)c1` [Compound 9, N-(3-chlorophenyl)-2-[4-[3-(trifluoromethyl)phenyl]piperazin-1-yl]acetamide monohydrochloride], the minimal effective dose in data set [1] (setting [4]), in data set [1] (setting [5]), in data set [2] (setting [6]) and in data set [2] (setting [7]) was above 300 mg/kg in each case.

Turning to `Cl.O=C(CN1CCN(c2ccccc2Cl)CC1)Nc1cccc(C(F)(F)F)c1` [Compound 15, 2-[4-(2-Chlorophenyl)piperazin-1-yl]-N-[3-(trifluoromethyl)phenyl]acetamide monohydrochloride], the minimal effective dose in data set [1] (setting [4]), in data set [1] (setting [5]), in data set [2] (setting [6]) and in data set [2] (setting [7]) was above 300 mg/kg each time.

Consider `CN1CCN(CC(=O)Nc2cccc(Cl)c2)CC1.Cl.Cl` [Compound 12, N-(3-chlorophenyl)-2-(4-methylpiperazin-1-yl)acetamide dihydrochloride], for which the minimal effective dose is above 300 mg/kg in data set [1] (setting [4]), above 300 mg/kg in data set [1] (setting [5]), 100 mg/kg in data set [2] (setting [6]) and above 300 mg/kg in data set [2] (setting [7]). Moreover, the “6-Hz, % of animals protected, 0.25 h” value in data set [3] (0.25 h) came to 75%. Also, the “6-Hz, % of animals protected, 0.5 h” value in data set [3] (0.5 h) came to 75%. The “6-Hz, number of mice protected/number of mice tested, 0.25 h” value in data set [3] (current 32 mA, 0.25 h) is 3/4. Also, the “6-Hz, number of mice protected/number of mice tested, 0.5 h” value in data set [3] (current 32 mA, 0.5 h) was 3/4. In addition, in data set [3] (current 32 mA, 1 h), the “6-Hz, number of mice protected/number of mice tested, 1 h” value is 0/4. Moreover, the “6-Hz, number of mice protected/number of mice tested, 2 h” value in data set [3] (current 32 mA, 2 h) was 0/4. The “6-Hz, number of mice protected/number of mice tested, 4 h” value in data set [3] (current 32 mA, 4 h) was 0/4.

For `Cl.O=C(CN1CCN(c2ccc(F)cc2)CC1)Nc1cccc(Cl)c1` [Compound 8, N-(3-chlorophenyl)-2-[4-(4-fluorophenyl)piperazin-1-yl]acetamide monohydrochloride], the minimal effective dose in data set [1] (setting [4]), in data set [1] (setting [5]), in data set [2] (setting [6]) and in data set [2] (setting [7]) was above 300 mg/kg each time.

In the case of `O=C(CN1CCN(c2ccc(Cl)cc2)CC1)Nc1cccc(C(F)(F)F)c1` [Compound 16, 2-[4-(4-Chlorophenyl)piperazin-1-yl]-N-[3-(trifluoromethyl)phenyl]acetamide], the minimal effective dose is above 300 mg/kg in data set [1] (setting [4]), above 300 mg/kg in data set [1] (setting [5]), above 300 mg/kg in data set [2] (setting [6]) and 100 mg/kg in data set [2] (setting [7]).
